Measured values from US20040121947A1, “Compounds which inhibit beta-secretase activity and methods of use thereof” (Oklahoma Medical Research Foundation, priority 2000, published 2004).
pKi: −log10 of the molar value. Read-outs that look alike come from different tables or passages of the source.

Biological target: T1, memapsin 2 (Homo sapiens, UniProt P56817)
T1 construct: pET-11 vector-derived residues 1-15 of promemapsin 2-T1 (N, cleaved yes); made in house; host or cells: E. coli
Assay: Inhibition of memapsin 2 proteolytic activity, fluorogenic substrate FS-2
Type: biochemical
Conditions: for pKi / Ki app / Ki: memapsin 2
Experimental: Ki is the inhibition equilibrium constant which indicates the ability of compounds to inhibit the β-secretase activity of memapsin 2 and memapsin 1. […] The K1 value is independent of the substrate, and converted from Ki apparent.
The Vi/Vo values depicted in Table 1 were determined at conditions under which the enzyme and inhibitor concentrations were equal (e.g., about 80 nM, 100 nM).
The relationship of Ki (independent of substrate concentration) to Kiapp is a function of substrate concentration in the assay and the Km for cleavage of the substrate by either memapsin 1 or memapsin 2 by the relationship:
The spontaneously activated memapsin 2 was employed in assays to assess the inhibition of memapsin 2 relative to memapsin 1 by compounds of the invention and in some crystallization studies.
An aliquot of the inhibitor of known concentration in DMSO was diluted into 1.8 ml 0.1 M NaOAc, pH 4.0. DMSO and added to a final concentration of 10% (v/v), and memapsin 2 (final concentration of 80 nM), followed by a 20 minute equilibration at 37° C. Compounds were evaluated for the ability to inhibit memapsin 1 and memapsin 2 at concentrations between about 10 nM and about 10 μm of inhibitor.

[1] = independent of substrate, converted from Ki apparent, read-out: Ki
[2] = apparent Ki in presence of substrate FS-2, read-out: Ki app
[3] = apparent Ki in presence of substrate FS-2
[4] = independent of substrate, converted from Ki apparent

T1 sequence (P56817 41-454 limits assumed): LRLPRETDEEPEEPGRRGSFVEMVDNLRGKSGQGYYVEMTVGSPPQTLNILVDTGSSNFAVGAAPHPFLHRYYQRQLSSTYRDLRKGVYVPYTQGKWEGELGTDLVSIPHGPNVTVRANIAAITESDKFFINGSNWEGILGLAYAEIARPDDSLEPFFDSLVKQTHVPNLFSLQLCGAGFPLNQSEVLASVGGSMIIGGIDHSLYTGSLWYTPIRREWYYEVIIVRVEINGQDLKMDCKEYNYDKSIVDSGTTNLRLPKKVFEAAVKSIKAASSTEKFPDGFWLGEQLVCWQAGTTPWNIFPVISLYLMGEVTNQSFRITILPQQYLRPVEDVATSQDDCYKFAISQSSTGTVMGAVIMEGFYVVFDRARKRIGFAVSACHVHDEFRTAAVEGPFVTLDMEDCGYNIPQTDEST

Row | pKi [1] | pKi [2] | Ki app [3] | Ki [4] | Vi/Vo (ratio of initial cleavage velocities of FS-2 with/without compound, enzyme and inhibitor concentrations equal (e.g., about 80 nM, 100 nM)) | Compound
1 | 2.62 |  |  |  |  | CC(C)C[C@H](NC(=O)OC(C)(C)C)[C@@H](O)C[C@@H](C)C(=O)N[C@@H](C)C(=O)NCc1ccccc1 [MMI-001]
2 | 3.56 |  |  |  |  | CSCC[C@H](NC(=O)[C@H](C)NC(=O)[C@H](C)C[C@H](O)[C@H](CC(C)C)NC(=O)OC(C)(C)C)C(=O)NCc1ccccc1 [MMI-002]
3 | 2.78 |  |  |  |  | CC(C)C[C@H](NC(=O)OC(C)(C)C)[C@@H](O)C[C@@H](C)C(=O)N[C@@H](C)C(=O)N[C@@H](CCS(C)(=O)=O)C(=O)NCc1ccccc1 [MMI-003]
4 | 7.10 | 6.90 |  |  |  | CC(C)C[C@H](NC(=O)[C@H](CC(N)=O)NC(=O)[C@@H](NC(=O)OC(C)(C)C)C(C)C)[C@@H](O)C[C@@H](C)C(=O)N[C@@H](C)C(=O)NCc1ccccc1 [MMI-005]
5 | 4.40 | 4.20 |  |  |  | CSCC[C@H](NC(=O)OC(C)(C)C)C(=O)N[C@@H](CC(C)C)[C@@H](O)C[C@@H](C)C(=O)N[C@@H](C)C(=O)NCc1ccccc1 [MMI-006]
6 | 4.50 | 4.30 |  |  |  | CC(C)C[C@H](NC(=O)[C@H](CCS(C)(=O)=O)NC(=O)OC(C)(C)C)[C@@H](O)C[C@@H](C)C(=O)N[C@@H](C)C(=O)NCc1ccccc1 [MMI-007]
7 | 7.34 | 7.13 |  |  |  | CSCC[C@H](NC(=O)[C@@H](NC(=O)OC(C)(C)C)C(C)C)C(=O)N[C@@H](CC(C)C)[C@@H](O)C[C@@H](C)C(=O)N[C@@H](C)C(=O)NCc1ccccc1 [MMI-008]
8 | 7.25 | 7.05 |  |  |  | CC(C)C[C@H](NC(=O)[C@H](CCS(C)(=O)=O)NC(=O)[C@@H](NC(=O)OC(C)(C)C)C(C)C)[C@@H](O)C[C@@H](C)C(=O)N[C@@H](C)C(=O)NCc1ccccc1 [MMI-009]
9 | 4.73 | 4.53 |  |  |  | C=CC[C@H](C[C@H](O)[C@H](CC(C)C)NC(=O)[C@H](CC(N)=O)NC(=O)OC(C)(C)C)C(=O)N[C@H](C(=O)NCc1ccccc1)C(C)C [MMI-010]
10 | 5.51 | 5.31 |  |  |  | CC(C)C[C@H](NC(=O)[C@H](CC(N)=O)NC(=O)OC(C)(C)C)[C@@H](O)C[C@@H](C)C(=O)N[C@H](C(=O)NCc1ccccc1)C(C)C [MMI-011]
11 | 8.25 | 8.04 |  |  |  | CC(C)C[C@H](NC(=O)[C@H](CC(N)=O)NC(=O)[C@@H](NC(=O)OC(C)(C)C)C(C)C)[C@@H](O)C[C@@H](C)C(=O)N[C@H](C(=O)NCc1ccccc1)C(C)C [MMI-012]
12 | 5.25 | 5.04 |  |  |  | CSCC[C@H](NC(=O)OC(C)(C)C)C(=O)N[C@@H](CC(C)C)[C@@H](O)C[C@@H](C)C(=O)N[C@H](C(=O)NCc1ccccc1)C(C)C [MMI-015]
13 | 5.45 | 5.25 |  |  |  | CC(C)C[C@H](NC(=O)[C@H](CCS(C)(=O)=O)NC(=O)OC(C)(C)C)[C@@H](O)C[C@@H](C)C(=O)N[C@H](C(=O)NCc1ccccc1)C(C)C [MMI-016]
14 | 6.00 | 5.79 |  |  |  | CC(C)C[C@H](NC(=O)[C@@H](NC(=O)[C@@H](NC(=O)OC(C)(C)C)C(C)C)[C@@H]1CCOC1)[C@@H](O)C[C@@H](C)C(=O)N[C@H](C(=O)NCc1ccccc1)C(C)C [MMI-020]
15 | 7.15 | 6.95 |  |  |  | C=CC[C@H](C[C@H](O)[C@H](CC(C)C)NC(=O)[C@H](CC(N)=O)NC(=O)[C@@H](NC(=O)OC(C)(C)C)C(C)C)C(=O)N[C@H](C(=O)NCc1ccccc1)C(C)C [MMI-021]
16 | 5.02 | 4.82 |  |  |  | CSC[C@H](NC(=O)OC(C)(C)C)C(=O)N[C@@H](CC(C)C)[C@@H](O)C[C@@H](C)C(=O)N[C@H](C(=O)NCc1ccccc1)C(C)C [MMI-023]
17 | 6.04 | 5.84 |  |  |  | CC(C)C[C@H](NC(=O)[C@H](CS(C)(=O)=O)NC(=O)OC(C)(C)C)[C@@H](O)C[C@@H](C)C(=O)N[C@H](C(=O)NCc1ccccc1)C(C)C [MMI-024]
18 | 7.39 | 7.18 |  |  |  | CSC[C@H](NC(=O)[C@@H](NC(=O)OC(C)(C)C)C(C)C)C(=O)N[C@@H](CC(C)C)[C@@H](O)C[C@@H](C)C(=O)N[C@H](C(=O)NCc1ccccc1)C(C)C [MMI-025]
19 | 5.14 | 4.94 |  |  |  | CCC[C@H](C[C@H](O)[C@H](CC(C)C)NC(=O)[C@H](CSC)NC(=O)O[C@@H]1C[C@@H]2CCO[C@@H]2C1)C(=O)N[C@H](C(=O)NCc1ccccc1)C(C)C [MMI-027]
20 | 5.21 | 5.01 |  |  |  | CCC[C@H](C[C@H](O)[C@H](CC(C)C)NC(=O)[C@H](CSC)NC(=O)O[C@H]1CO[C@H]2OCC[C@H]21)C(=O)N[C@H](C(=O)NCc1ccccc1)C(C)C [MMI-028]

Row | pKi [1] | pKi [2] | Ki app [3] | Ki [4] | Vi/Vo (ratio of initial cleavage velocities of FS-2 with/without compound, enzyme and inhibitor concentrations equal (e.g., about 80 nM, 100 nM)) | Compound
21 | 5.97 | 5.77 |  |  |  | CCC[C@H](C[C@H](O)[C@H](CC(C)C)NC(=O)[C@H](CSC)NC(=O)O[C@H]1CCOC1)C(=O)N[C@H](C(=O)NCc1ccccc1)C(C)C [MMI-029]
22 | 5.27 | 5.07 |  |  |  | CSCC[C@H](NC(=O)[C@@H](NC(=O)OC(C)(C)C)C(C)C)C(=O)N[C@@H](CC(C)C)[C@@H](O)C[C@@H](CC(F)(F)F)C(=O)N[C@H](C(=O)NCc1ccccc1)C(C)C [MMI-030]
23 | 6.27 | 6.06 |  |  |  | CCC[C@H](C[C@H](O)[C@H](CC(C)C)NC(=O)[C@H](CSC)NC(=O)OCc1cccnc1)C(=O)N[C@H](C(=O)NCc1ccccc1)C(C)C [MMI-031]
24 | 6.08 | 5.87 |  |  |  | CCC[C@H](C[C@H](O)[C@H](CC(C)C)NC(=O)[C@H](CSC)NC(=O)c1cccc(O)c1C)C(=O)N[C@H](C(=O)NCc1ccccc1)C(C)C [MMI-032]
25 | 6.86 | 6.65 |  |  |  | CSCC[C@H](NC(=O)[C@@H](NC(=O)OC(C)(C)C)C(C)C)C(=O)N[C@@H](CC(C)C)[C@@H](O)C[C@@H](C)C(=O)N[C@H](C(=O)NCc1ccccc1)C1CCCO1 (stereo partly drawn) [MMI-034]
26 | 6.57 | 6.37 |  |  |  | CC(C)C[C@H](NC(=O)[C@H](CCS(C)(=O)=O)NC(=O)[C@@H](NC(=O)OC(C)(C)C)C(C)C)[C@@H](O)C[C@@H](C)C(=O)N[C@H](C(=O)NCc1ccccc1)C1CCCO1 (stereo partly drawn) [MMI-035]
27 |  |  | N.I. | N.I. |  | CSCC[C@H](NC(=O)[C@@H](NC(=O)OC(C)(C)C)C(C)C)C(=O)N[C@@H](CC(C)C)[C@@H](O)C[C@@H](CC(C)C)C(=O)NC1CCN(Cc2ccccc2)CC1 [MMI-036]
28 | 7.19 | 6.98 |  |  |  | CSCC[C@H](NC(=O)[C@@H](NC(=O)OC(C)(C)C)C(C)C)C(=O)N[C@@H](CC(C)C)[C@@H](O)C[C@@H](CCO)C(=O)N[C@H](C(=O)NCc1ccccc1)C(C)C [MMI-037]
29 | 7.18 | 6.97 |  |  | 0.4 | CSCC[C@H](NC(=O)[C@@H](NC(=O)OC(C)(C)C)C(C)C)C(=O)N[C@@H](CC(C)C)[C@@H](O)C[C@@H](CC(N)=O)C(=O)N[C@H](C(=O)NCc1ccccc1)C(C)C [MMI-038]
30 | 6.06 | 5.86 |  |  |  | CSCC[C@H](NC(=O)OCc1cccnc1)C(=O)N[C@@H](CC(C)C)[C@@H](O)C[C@@H](C)C(=O)N[C@H](C(=O)NCc1ccccc1)C(C)C [MMI-039]
31 | 5.89 | 5.68 |  |  |  | CSCC[C@H](NC(=O)OCc1cccnc1)C(=O)N[C@@H](Cc1ccccc1)[C@@H](O)C[C@@H](C)C(=O)N[C@H](C(=O)NCc1ccccc1)C(C)C [MMI-040]
32 |  |  | N.I. | N.I. |  | CSCC[C@H](NC(=O)[C@@H](NC(=O)OC(C)(C)C)C(C)C)C(=O)N[C@@H](CC(C)C)[C@@H](O)C[C@@H](C)C(=O)N[C@H](COCc1ccccc1)C(C)C [MMI-041]
33 | 4.64 | 4.44 |  |  |  | CSCC[C@H](NC(=O)[C@@H](NC(=O)OC(C)(C)C)C(C)C)C(=O)N[C@@H](CC(C)C)[C@@H](O)C[C@@H](C)C(=O)N[C@H](CO)C(C)C [MMI-042]
34 | 4.51 | 4.31 |  |  |  | CC(C)C[C@H](NC(=O)[C@H](CCS(C)(=O)=O)NC(=O)[C@@H](NC(=O)OC(C)(C)C)C(C)C)[C@@H](O)C[C@@H](C)C(=O)N[C@H](CO)C(C)C [MMI-043]
35 |  |  | N.I. | N.I. |  | CSCC[C@H](NC(=O)[C@@H](NC(=O)OC(C)(C)C)C(C)C)C(=O)N[C@@H](CC(C)C)[C@@H](O)C[C@@H](C)C(=O)N1CCC[C@H]1C(=O)NCc1ccccc1 [MMI-044]
36 |  |  | N.I. | N.I. |  | CC(C)C[C@H](NC(=O)[C@H](CCS(C)(=O)=O)NC(=O)[C@@H](NC(=O)OC(C)(C)C)C(C)C)[C@@H](O)C[C@@H](C)C(=O)N1CCC[C@H]1C(=O)NCc1ccccc1 [MMI-045]
37 | 4.03 |  |  |  |  | CSCC[C@H](NC(=O)[C@@H](NC(=O)OC(C)(C)C)C(C)C)C(=O)N[C@@H](CC(C)C)[C@@H](O)C[C@@H](C)C(=O)N[C@H]1c2ccccc2C[C@H]1O [MMI-046]
38 | 4.16 |  |  |  |  | CC(C)C[C@H](NC(=O)[C@H](CCS(C)(=O)=O)NC(=O)[C@@H](NC(=O)OC(C)(C)C)C(C)C)[C@@H](O)C[C@@H](C)C(=O)N[C@H]1c2ccccc2C[C@H]1O [MMI-047]
39 | 4.47 | 4.26 |  |  |  | CSCC[C@H](NS(=O)(=O)c1ccc(CO)cc1)C(=O)N[C@@H](Cc1ccccc1)[C@@H](O)C[C@@H](C)C(=O)N[C@H](C(=O)NCc1ccccc1)C(C)C [MMI-048]
40 | 3.91 |  |  |  |  | CC(C)C[C@H](NC(=O)[C@H](CCO)NC(=O)c1cnc2ccccc2c1)[C@@H](O)C[C@@H](C)C(=O)N[C@H](C(=O)N[C@H]1c2ccccc2C[C@H]1O)C(C)C [MMI-049]
